Reference: the SangsterLogP compilation

Assay: method code SF-AS, from DOI: 10.1016/s0021-9673(00)82338-9
Conditions: pH 9.0

First: O=[N+]([O-])c1cncn1CCN1CCOCC1
Second: CN1CCN(Cc2ncc([N+](=O)[O-])n2C)CC1
The logD of the first is higher: 0.07 for the first, -0.32 for the second.

Going from `Cn1c([N+](=O)[O-])cnc1COC(N)=O` to `Cn1c([N+](=O)[O-])cnc1CO`, the logD rises from -0.38 to -0.03.

Going from `O=[N+]([O-])c1cnc(C=Cc2ccc3c(c2)OCO3)n1CCO` to `Cn1c([N+](=O)[O-])cnc1C=O`, the logD falls from 2.03 to -0.69.

Going from `Cc1ncc([N+](=O)[O-])n1CC(O)Cn1c([N+](=O)[O-])cnc1C` to `Cc1ncc([N+](=O)[O-])n1CC(=O)N1C=CN(C(=O)Cn2c([N+](=O)[O-])cnc2C)C=C1`, the logD falls from 0.31 to -0.7.

`Cn1c([N+](=O)[O-])cnc1C1CC1` showed a logD of 1.
